The values below come from the NIST ThermoML archive (doi:10.1021/je101230a).

± gives the expanded uncertainty stated by the source.

The conditions of this data set: Crystal; DTA.

Take `CCc1ccc(CCOc2ccc(CC3SC(=O)NC3=O)cc2)nc1.Cl` (stereo unspecified): the Normal melting temperature was found to be 198.00 ± 1.1 °C.
